The results in this text go back to article PMC11013038, “Design, Synthesis, and Evaluation of B-(Trifluoromethyl)phenyl Phosphine–Borane Derivatives as Novel Progesterone Receptor Antagonists” (Molecules, 2024).

Data set [1] in a line: LogP (1-octanol/water partition coefficient) determined using HPLC. The data set is classed as physicochemical. On the procedure: Hydrophobicity is a key determinant of the activity and pharmacokinetics of biologically active compounds, and the octanol–water partition coefficient (P) and logarithm value (LogP) are widely used hydrophobicity parameters. The LogP values of the synthesized compounds were determined using HPLC [45, 46]. Table 1 summarizes the experimentally determined LogP values and calculated values. […] From the viewpoint of the phosphine structure, an increase in the number of carbon atoms increased hydrophobicity in a predictable manner.
The 1-octanol/water partition coefficient P was determined using HPLC based on the OECD Guideline for Testing Chemicals. A COSMOSIL Packed Column 5C18-MS-II (5 μm, 150 mm × 4.6 mm id, Nacalai Tesque, Inc., Kyoto, Japan) was fitted on an HPLC instrument (Multiwavelength Detector, MD-2010 Plus. JASCO, Tokyo, Japan) equipped with a pump (PU-2080, JASCO) and an oven (SSC-2120, Senshu Scientific Co., Ltd., Tokyo, Japan). The injection volume was 20 µL; the mobile phase was methanol–water 75% (v/v); and the flow rate was 1.0 mL/min in all cases. Compounds were detected by measuring the UV absorption at 240 nm. The temperature of the column was kept at 40.0 (± 0.1) °C during the measurement. The measurement was performed in triplicate, and the mean value was calculated. The dead time t0 was measured with thiourea as the unretained compound, and the capacity factor k was calculated using the equation logk = log (tr − t0/t0), where tr represents the retention time of the compound. A calibration graph was determined experimentally using reference compounds (4-methylphenol, 4-chlorophenol, 4-phenylphenol, diphenylether, fluoranthene, and dichlorodiphenyltrichloroethane) with known logP values. The LogP values of phosphine–boranes were calculated based on a calibration graph (LogP = 2.6269 logkw + 3.059, R^2 = 0.9915).

Data set [2] addresses T1, progesterone receptor (PR) (Homo sapiens, UniProt P06401).
T1 construct: alkaline phosphatase assay with the T47D human breast cancer cell line; endogenous in cells; host or cells: T47D
T1 sequence (P06401 1-933): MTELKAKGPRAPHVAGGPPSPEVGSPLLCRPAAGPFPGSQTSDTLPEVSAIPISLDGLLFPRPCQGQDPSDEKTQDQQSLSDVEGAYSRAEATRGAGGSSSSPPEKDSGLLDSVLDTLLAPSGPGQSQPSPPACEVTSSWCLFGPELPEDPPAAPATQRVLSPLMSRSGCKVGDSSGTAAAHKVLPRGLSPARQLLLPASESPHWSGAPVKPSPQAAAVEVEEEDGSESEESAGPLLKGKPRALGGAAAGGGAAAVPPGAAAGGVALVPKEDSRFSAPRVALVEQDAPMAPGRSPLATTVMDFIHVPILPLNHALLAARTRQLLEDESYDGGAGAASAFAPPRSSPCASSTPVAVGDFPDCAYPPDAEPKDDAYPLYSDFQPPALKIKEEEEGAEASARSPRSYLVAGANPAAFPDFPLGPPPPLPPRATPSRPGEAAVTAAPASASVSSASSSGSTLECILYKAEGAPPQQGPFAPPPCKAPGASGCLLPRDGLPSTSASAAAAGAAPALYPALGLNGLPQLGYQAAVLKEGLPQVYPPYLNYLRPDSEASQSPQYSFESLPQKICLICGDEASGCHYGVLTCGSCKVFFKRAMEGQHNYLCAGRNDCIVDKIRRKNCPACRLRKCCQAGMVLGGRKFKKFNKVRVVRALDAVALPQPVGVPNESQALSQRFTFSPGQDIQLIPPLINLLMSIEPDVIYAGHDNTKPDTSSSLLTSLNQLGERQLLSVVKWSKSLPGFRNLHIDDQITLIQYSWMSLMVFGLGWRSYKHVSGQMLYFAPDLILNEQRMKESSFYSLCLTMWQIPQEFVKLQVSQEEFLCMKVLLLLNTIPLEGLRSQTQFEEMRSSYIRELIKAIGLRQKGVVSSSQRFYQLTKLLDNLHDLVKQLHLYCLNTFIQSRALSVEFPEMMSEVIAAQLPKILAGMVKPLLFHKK
The experiment in a line: T47D alkaline phosphatase assay, PR antagonistic activity in the presence of 1 nM P4. The data set is classed as cell-based. The following applies: T47D cells, 1.0 nM P4, 48 h; mean ± SD from three independent experiments. As for the experimental part:
The PR agonistic and antagonistic activities of the synthesized phosphine–borane derivatives were evaluated using an alkaline phosphatase assay with the T47D human breast cancer cell line. […] The basal alkaline phosphatase activity was also not affected by the tested compounds alone. […] The PR antagonistic activities of the compounds were assessed in the presence of 1 nM of P4 (5). We also calculated the molecular volume of each compound to investigate the structure–activity relationship (SAR). Table 2 summarizes the PR antagonistic activity and calculated volumes of the synthesized compounds. […] We investigated the binding affinity of the compounds toward the PR ligand-binding domain (LBD) using a fluorescence polarization assay system. […] We also investigated the activity of compounds 28 and 34 toward the androgen receptor (AR) by means of cell-proliferation promoting/inhibitory activity toward androgen-dependent SC-3 cells. […].
T47D alkaline phosphatase assays were performed as previously described, with minor modifications. Briefly, the human breast cancer cell line T47D (HMS LINCS database Accession Numbers: 50541) was routinely cultivated in RPMI 1640 medium with 10% FBS at 37 °C in a 5% CO2 humidified incubator. The cells were plated in 96-well plates and incubated overnight in a 5% CO2 humidified incubator at 37 °C. The next day, the cells were treated with a fresh medium containing the test compound in the presence of 1 nM of progesterone and further incubated for 48 h. The medium was aspirated, and the cells were fixed with 100 μL of 1.8% formalin–PBS. The fixed cells were washed with PBS, and 100 μL of an assay buffer (1 mg/mL p-nitrophenol phosphate in diethanolamine water solution, pH 9.0) was added. The mixture was incubated at room temperature for 2 h under light-shielded conditions. The absorbance was measured at 405 nm using a DTX 880 Multimode Detector (Beckman Coulter, Brea, CA, USA). All data points were measured in triplicate, and IC50 values were calculated from three independent experiments.

The mark [3] stands for this setting: HPLC, tentative value: hydrophobicity beyond the range of the reference compounds (1.9 < LogP < 6.5).

Molecules are shown by their SMILES. Bounds are passed on as bounds.

Turning to `CCCC[P+]([BH2-]c1ccc(C(F)(F)F)cc1)(CCCC)CCCC` [Compound 35, B-4-(Trifluoromethyl)phenyl Tri-n-butylphosphine–Borane], the melting point (in general, the temperature of the solid-liquid transition) lay within 33.2 to 33.8 °C. For the same compound, the chromatographic logP (as a rule, a lipophilicity value derived from retention on a column) in data set [1] (setting [3]) came out at 7.5. Also, the IC50 (in general, the concentration that inhibits the measured activity by half) in data set [2] was above 10000 nM.
On to `FC(F)(F)c1ccc([BH2-][P+](C2CCCC2)(C2CCCC2)C2CCCC2)cc1` [Compound 36, B-4-(Trifluoromethyl)phenyl Tricyclopentylphosphine–Borane], for which the melting point lay in the range of 88 to 88.6 °C. Besides, the chromatographic logP in data set [1] (setting [3]) was 7.95. Further, in data set [2], the IC50 stood at 2630 ± 720 nM.
On the same counts, the results for `FC(F)(F)c1ccc([BH2-][P+](C2CCCCC2)(C2CCCCC2)C2CCCCC2)cc1` [Compound 37, B-4-(Trifluoromethyl)phenyl Tricyclohexylphosphine–Borane] are 126.7 to 127 °C, 8.97 and above 10000 nM.
Regarding `CN(C)[P+]([BH2-]c1ccc(C(F)(F)F)cc1)(N(C)C)N(C)C` [Compound 39, B-4-(Trifluoromethyl)phenyl Tris(dimethylamino)phosphine–Borane], the melting point lay within 41.1 to 41.6 °C. The same compound returned a chromatographic logP in data set [1] (HPLC (OECD guideline), C18 column, methanol–water 75% (v/v), 40 °C, mean of triplicate) of 5.64. Further, the IC50 in data set [2] stood at 1400 ± 880 nM.
